Values quoted from earlier work, collected in patent publication US20100323044A1, “ABNORMAL PROTEIN REMOVING METHOD” (FANCL CORPORATION, priority 2004, published 2010).

Conditions: assumed, J Nutr 134 (2004); broken down by intestinal bacteria into soyasapogenol B, then absorbed

## C[C@@H]1O[C@@H](O[C@H]2[C@H](O[C@H]3[C@H](O[C@H]4CC[C@@]5(C)[C@@H](CC[C@]6(C)[C@@H]5CC=C5[C@@H]7CC(C)(C)C[C@@H](O)[C@]7(C)CC[C@]56C)[C@@]4(C)CO)O[C@H](C(=O)O)[C@@H](O)[C@@H]3O)O[C@H](CO)[C@H](O)[C@@H]2O)[C@H](O)[C@H](O)[C@H]1O [soyasaponin I]
  absorption in the human intestines: not absorbed directly
